Assays:
[1] = target: T1, Calmodulin-1 (Homo sapiens, UniProt P0DP23); assay: Inhibition of recombinant calmodulin mediated bovine brain PDE1 activation assessed as effect on inorganic phosphate release by spectrophotometry
[2] = target: T1, Calmodulin-1; assay: Inhibition of recombinant calmodulin mediated bovine brain PDE1 activation assessed as effect on inorganic phosphate release using variable calmodulin level by spectrophotometry

IC50 [1] [µM] | Ki [2] [µM] | Structure (SMILES)
9.59 |  | C=C(C)[C@H]1COc2c(C)cc3oc4c(C[C@H](Cl)C(C)(C)O)ccc(O)c4c(=O)c3c2[C@@H]1O
5.54 | 25.4 | C=C(C)[C@H]1COc2c(C)cc3oc4c([C@H](OC)[C@@H]5OC5(C)C)ccc(O)c4c(=O)c3c2[C@@H]1O
29.2 |  | C=C(C)[C@H]1COc2c(C)cc3oc4c(CC=C(C)C)ccc(O)c4c(=O)c3c2[C@@H]1O [SHAMIXANTHONE]
5.62 | 13.9 | C=C(C)[C@H]1COc2c(C)cc3oc4c(C[C@H](O)C(C)(C)O)ccc(O)c4c(=O)c3c2[C@@H]1O [TAJIXANTHONE HYDRATE]

Source: ChEMBL document CHEMBL1154503, “Calmodulin inhibitors from the fungus Emericella sp” (Bioorg Med Chem, 2009)
